Source: US20080241904A1, “PROCESS FOR PRODUCING ISOMALTOSE AND USES THEREOF” (KABUSHIKI KAISHA HAYASHIBARA SEIBUTSU KAGAKU KENKYUJO, priority 2001, published 2008)

Assays:
Conditions in all cases: for Relative activity: in the presence of 1 mM of each metal ion, None = 100
[1] = test system: α-isomaltosylglucosaccharide-forming enzyme; experiment: Influence of metal ions on activity of α-isomaltosylglucosaccharide-forming enzyme (Strain C9); assay type: biochemical, Bacillus globisporus C9
Procedure: The activities of these enzymes were assayed as follows: The α-isomaltosylglucosaccharide-forming enzyme of the present invention was assayed for enzymatic activity by dissolving maltotriose in 100 mM acetate buffer (pH 6.0) to give a concentration of 2% (w/v) for a substrate solution, adding a 0.5 ml of an enzyme solution to a 0.5 ml of the substrate solution, enzymatically reacting the mixture solution at 35° C. for 60 min, suspending the reaction mixture by heating at 100° C. for 10 min, and quantifying maltose, among the isomaltosyl maltose and maltose formed in the reaction mixture, by high-performance liquid chromatography (abbreviated as “HPLC” hereinafter). HPLC was carried out using “YMC PACK ODS-AQ303 column” commercialized by YMC Co., Ltd., Tokyo, Japan, at a column temperature of 40° C. and a flow rate of 0.5 ml/min of water; and using “RI-8012”, a differential refractometer commercialized by Tosoh Corporation, Tokyo, Japan. One unit activity of the α-isomaltosylglucosaccharide-forming enzyme is defined as the enzyme amount that forms one micromole of maltose per minute under the above enzymatic reaction conditions.
The influence of metal ions on the activity of α-isomaltosylglucosaccharide-forming enzyme was examined in the presence of 1 mM of each metal-ion according to the assay for the enzyme activity.

[2] = test system: α-isomaltosyl-transferring enzyme; experiment: Influence of metal ions on activity of α-isomaltosyl-transferring enzyme (Strain C9); assay type: biochemical, Bacillus globisporus C9
Procedure: (§1) The α-isomaltosyl-transferring enzyme was assayed for enzymatic activity by dissolving panose in 100 mM acetate buffer (pH 6.0) to give a concentration of 2% (w/v) for a substrate solution, adding a 0.5 ml of an enzyme solution to 0.5 ml of the substrate solution, enzymatically reacting the mixture solution at 35° C. for 30 min, suspending the reaction mixture by boiling for 10 min, and quantifying glucose, among the cyclotetrasaccharide and glucose formed in the reaction mixture, by the glucose oxidase method. One unit activity of the α-isomaltosyl-transferring enzyme is defined as the enzyme amount that forms one micromole of glucose per minute under the above enzymatic reaction conditions.
(§2) The influence of metal ions on the activity of α-isomaltosyl-transferring enzyme was examined in the presence of 1 mM of each metal-ion according to the assay for the enzyme activity.

[3] = test system: α-isomaltosylglucosaccharide-forming enzyme; experiment: Influence of metal ions on enzyme activity, Experiment 4-2 (Strain C11); assay type: biochemical, Bacillus globisporus C11
[4] = test system: α-isomaltosyl-transferring enzyme; experiment: Influence of metal ions on activity of α-isomaltosyl-transferring enzyme (Strain C11); assay type: biochemical, Bacillus globisporus C11
Procedure: as §1, §2

| SMILES | Relative activity [1] [%] | Relative activity [2] [%] | Relative activity [3] [%] | Relative activity [4] [%] | Effect on enzyme activity (in words) ([1]; 1 mM, summary of Table 2) | Effect on enzyme activity (in words) ([2]; 1 mM, summary of Table 4) | Effect on enzyme activity (in words) ([3]; 1 mM, summary of Table 6) | Effect on enzyme activity (in words) ([4]; 1 mM, summary of Table 8) |
| --- | --- | --- | --- | --- | --- | --- | --- | --- |
| [Pb+2] [Pb^2+] | 103 | 89 | 101 | 74 |  |  |  |  |
| [Co+2] [Co^2+] | 100 | 103 | 96 | 89 |  |  |  |  |

Other lines, results leading:

| Relative activity [1] [%] | Relative activity [2] [%] | Relative activity [3] [%] | Relative activity [4] [%] | Effect on enzyme activity (in words) ([1]; 1 mM, summary of Table 2) | Effect on enzyme activity (in words) ([2]; 1 mM, summary of Table 4) | Effect on enzyme activity (in words) ([3]; 1 mM, summary of Table 6) | Effect on enzyme activity (in words) ([4]; 1 mM, summary of Table 8) | SMILES |
| --- | --- | --- | --- | --- | --- | --- | --- | --- |
| 99 | 103 | 100 | 89 |  |  |  |  | [Al+3] [Al^3+] |
| 15 | 57 | 23 | 56 | greatly inhibited | inhibited | greatly inhibited | inhibited | [Cu+2] [Cu^2+] |
| 92 | 88 | 91 | 83 |  |  |  |  | [Zn+2] [Zn^2+] |
